Measured values as given in patent US20240067645A1, “HETEROCYCLIC COMPOUND AS DIACYLGLYCEROL KINASE INHIBITOR AND USE THEREOF” (LG CHEM, LTD., priority 2020, published 2024).

target: DGKα (Homo sapiens (Human), UniProt P23743); assay: Measurement of inhibitory effect against DGKα enzyme (ADP-Glo); assay type: biochemical; conditions: not given
Description: Experimental Example: Measurement of Inhibitory Effect Against DGKα Enzyme
First, 3×OAG (3 mM)/ATP (0.45 mM) substrate solution was prepared from 1× substrate assay buffer (40 mM MOPS (pH 7.2), 20 mM MgCl2, 1 mM DTT, 0.4 mM CaCl2), 3 mM sodium deoxycholate, 100 mM NaCl, 0.1 mg/mL BSA, 0.12% NP-40), and vortexed thoroughly for 3 minutes to induce detergent-lipid micelle formation. Then, 3×DGKα (7.5 nM) enzyme solution was prepared from 2× enzyme assay buffer (80 mM MOPS (pH 7.2), 2 mM DTT, 200 mM NaCl, 0.2 mg/mL BSA) and vortexed for a short time.
After preparing the above two solutions, a half-area opaque 96-well assay plate was prepared, and 10 μL of 3× diluted compound solution (30 μM to 0 μM) was transferred to each well. Next, 10 μL of 3×DGK enzyme solution was transferred to the same plate, mixed by pipetting, and then 10 μL of 3×OAG/ATP substrate solution was added to the assay plate and mixed well. The plate was incubated at room temperature for 20 minutes for the enzyme reaction. Next, 15 μL of ADP-Glo reagent was added to each well and mixed by pipetting, followed by incubating the plate at room temperature for 40 minutes to deplete the remaining ATPs. After this step, 30 μL of kinase detection reagent was added and mixed, and the plate was incubated at room temperature for an additional 20 minutes and luminescence was measured by Envision to calculate the IC50 value of each compound.
The measurement results are represented in Table 1 (+: IC50>5 μM, ++: 5 μM>IC50>300 nM, +++: IC50<300 nM).

DGKα, sequence (P23743 whole entry, species assumed): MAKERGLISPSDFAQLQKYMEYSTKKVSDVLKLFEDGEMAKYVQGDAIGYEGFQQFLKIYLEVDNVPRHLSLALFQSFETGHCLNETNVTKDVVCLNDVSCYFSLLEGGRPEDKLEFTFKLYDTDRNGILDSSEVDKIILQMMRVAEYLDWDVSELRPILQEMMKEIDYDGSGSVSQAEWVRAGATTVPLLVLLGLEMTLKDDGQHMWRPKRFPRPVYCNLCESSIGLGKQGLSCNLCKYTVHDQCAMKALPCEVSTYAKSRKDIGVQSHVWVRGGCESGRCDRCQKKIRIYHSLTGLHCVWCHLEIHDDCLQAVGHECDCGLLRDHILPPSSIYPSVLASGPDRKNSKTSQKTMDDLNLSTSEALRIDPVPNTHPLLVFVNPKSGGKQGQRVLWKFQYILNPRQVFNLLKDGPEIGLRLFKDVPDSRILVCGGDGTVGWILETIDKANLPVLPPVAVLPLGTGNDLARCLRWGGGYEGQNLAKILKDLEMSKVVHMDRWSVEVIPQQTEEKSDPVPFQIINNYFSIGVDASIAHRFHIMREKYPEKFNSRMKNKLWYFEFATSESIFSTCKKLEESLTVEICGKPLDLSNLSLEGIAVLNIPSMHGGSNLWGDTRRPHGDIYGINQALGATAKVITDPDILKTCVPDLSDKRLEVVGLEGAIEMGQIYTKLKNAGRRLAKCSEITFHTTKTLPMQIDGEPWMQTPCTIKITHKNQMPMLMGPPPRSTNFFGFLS

Compound	IC50
Cn1c(=O)c(=O)n([C@H]2C[C@H]3CC[C@@H](C2)N3Cc2ccc(OC(F)(F)F)cc2)c2ncc(Cl)cc21 [Example 57, 7-chloro-1-methyl-4-((1R,3r,5S)-8-(4-(trifluoromethoxy)benzyl)-8-azabicyclo[3.2.1]octan-3-yl)-1,4-dihydropyrido[2,3-b]pyrazine-2,3-dione]	300 to 5000 nM

same assay, conditions: DGKα enzyme, ADP-Glo luminescence, OAG/ATP substrate, 20 min room temperature; read-out: IC50

Compound	IC50
Cn1c(=O)c(=O)n(C2CCN(Cc3cccc4nccnc34)CC2)c2ncc(Cl)cc21 [Example 33, 7-chloro-1-methyl-4-(1-(quinoxalin-5-ylmethyl)piperidin-4-yl)-1,4-dihydropyrido[2,3-b]pyrazine-2,3-dione]	300 to 5000 nM
Cn1cc(-c2cnc3c(c2)n(C)c(=O)c(=O)n3C2CCN(Cc3ccc(OC(F)(F)F)cc3)CC2)cn1 [Example 36, 1-methyl-7-(1-methyl-1H-pyrazol-4-yl)-4-(1-(4-(trifluoromethoxy)benzyl)piperidin-4-yl)-1,4-dihydropyrido[2,3-b]pyrazine-2,3-dione]	< 300 nM
Cn1c(=O)c(=O)n(C2CCN(Cc3cccc4c3CCCC4)CC2)c2ncc(Cl)cc21 [Example 37, 7-chloro-1-methyl-4-(1-((5,6,7,8-tetrahydronaphthalen-1-yl)methyl)piperidin-4-yl)-1,4-dihydropyrido[2,3-b]pyrazine-2,3-dione]	< 300 nM
Cn1c(=O)c(=O)n(C2CCN(Cc3ccc(OC(F)(F)F)cc3)CC2)c2nc(C#N)c(Br)cc21 [Example 38, 7-bromo-1-methyl-2,3-dioxo-4-(1-(4-(trifluoromethoxy)benzyl)piperidin-4-yl)-1,2,3,4-tetrahydropyrido[2,3-b]pyrazine-6-carbonitrile]	300 to 5000 nM
Cn1c(=O)c(=O)n(C2CCN(Cc3ccc(OC(F)(F)F)cc3)CC2)c2ncc(-c3ccccc3F)cc21 [Example 39, 7-(2-fluorophenyl)-1-methyl-4-(1-(4-(trifluoromethoxy)benzyl)piperidin-4-yl)-1,4-dihydropyrido[2,3-b]pyrazine-2,3-dione]	< 300 nM
Cn1c(=O)c(=O)n(C2CCN(Cc3ccc(OC(F)(F)F)cc3)CC2)c2ncc(C3CC3)cc21 [Example 40, 7-cyclopropyl-1-methyl-4-(1-(4-(trifluoromethoxy)benzyl)piperidin-4-yl)-1,4-dihydropyrido[2,3-b]pyrazine-2,3-dione]	> 5000 nM
Cn1c(=O)c(=O)n(C2CCN(Cc3ccc(OC(F)(F)F)cc3)CC2)c2nc(-c3ccccc3F)c(Cl)cc21 [Example 41, 7-chloro-6-(2-fluorophenyl)-1-methyl-4-(1-(4-(trifluoromethoxy)benzyl)piperidin-4-yl)-1,4-dihydropyrido[2,3-b]pyrazine-2,3-dione]	< 300 nM
Cn1c(=O)c(=O)n(C2CCN(Cc3ccc(OC(F)(F)F)cc3)CC2)c2nc(C#N)c(C3CC3)cc21 [Example 44, 7-cyclopropyl-1-methyl-2,3-dioxo-4-(1-(4-(trifluoromethoxy)benzyl)piperidin-4-yl)-1,2,3,4-tetrahydropyrido[2,3-b]pyrazine-6-carbonitrile]	300 to 5000 nM
Cn1c(=O)c(=O)n(C2CCN(C(c3cccc(Cl)c3)c3cccc(Cl)c3)CC2)c2ncc(Cl)cc21 [Example 45, 4-(1-(bis(3-chlorophenyl)methyl)piperidin-4-yl)-7-chloro-1-methyl-1,4-dihydropyrido[2,3-b]pyrazine-2,3-dione]	300 to 5000 nM
Cn1c(=O)c(=O)n(C2CCN(Cc3ccc4c(c3)OCCO4)CC2)c2ncc(Cl)cc21 [Example 46, 7-chloro-4-(1-((2,3-dihydrobenzo[b][1,4]dioxin-6-yl)methyl)piperidin-4-yl)-1-methyl-1,4-dihydropyrido[2,3-b]pyrazine-2,3-dione]	300 to 5000 nM
Cn1c(=O)c(=O)n(C2CCN(Cc3ccc(OC(F)(F)F)cc3)CC2)c2ncc(C#N)cc21 [Example 47, 1-methyl-2,3-dioxo-4-(1-(4-(trifluoromethoxy)benzyl)piperidin-4-yl)-1,2,3,4-tetrahydropyrido[2,3-b]pyrazine-7-carbonitrile]	300 to 5000 nM
CC(=O)c1cnc2c(c1)n(C)c(=O)c(=O)n2C1CCN(Cc2ccc(OC(F)(F)F)cc2)CC1 [Example 48, 7-acetyl-1-methyl-4-(1-(4-(trifluoromethoxy)benzyl)piperidin-4-yl)-1,4-dihydropyrido[2,3-b]pyrazine-2,3-dione]	< 300 nM
C[C@@H]1CC(n2c(=O)c(=O)n(C)c3cc(Cl)cnc32)[C@@H](C)CN1Cc1ccc(OC(F)(F)F)cc1 (stereo partly shown) [Example 49]	300 to 5000 nM
Cc1nc2c(cc1Cl)n(C)c(=O)c(=O)n2C1CCN(Cc2ccc(OC(F)(F)F)cc2)CC1 [Example 50, 7-chloro-1,6-dimethyl-4-(1-(4-(trifluoromethoxy)benzyl)piperidin-4-yl)-1,4-dihydropyrido[2,3-b]pyrazine-2,3-dione]	< 300 nM
Cc1nc2c(cc1Br)n(C)c(=O)c(=O)n2C1CCN(Cc2ccc(OC(F)(F)F)cc2)CC1 [Example 51, 7-bromo-1,6-dimethyl-4-(1-(4-(trifluoromethoxy)benzyl)piperidin-4-yl)-1,4-dihydropyrido[2,3-b]pyrazine-2,3-dione]	< 300 nM
CC(C)n1cc(CN2CCC(n3c(=O)c(=O)n(C)c4cc(Cl)cnc43)CC2)cn1 [Example 52, 7-chloro-4-(1-((1-isopropyl-1H-pyrazol-4-yl)methyl)piperidin-4-yl)-1-methyl-1,4-dihydropyrido[2,3-b]pyrazine-2,3-dione]	> 5000 nM
CC(=O)c1ccc2c(n1)n(C1CCN(Cc3ccc(OC(F)(F)F)cc3)CC1)c(=O)c(=O)n2C [Example 53, 6-acetyl-1-methyl-4-(1-(4-(trifluoromethoxy)benzyl)piperidin-4-yl)-1,4-dihydropyrido[2,3-b]pyrazine-2,3-dione]	300 to 5000 nM
Cn1c(=O)c(=O)n(C2CCN(Cc3ccc(OC(F)(F)F)cc3)CC2)c2nc(Cl)ccc21 [Example 54, 6-chloro-1-methyl-4-(1-(4-(trifluoromethoxy)benzyl)piperidin-4-yl)-1,4-dihydropyrido[2,3-b]pyrazine-2,3-dione]	< 300 nM
COc1ccc2c(n1)n(C1CCN(Cc3ccc(OC(F)(F)F)cc3)CC1)c(=O)c(=O)n2C [Example 55, 6-methoxy-1-methyl-4-(1-(4-(trifluoromethoxy)benzyl)piperidin-4-yl)-1,4-dihydropyrido[2,3-b]pyrazine-2,3-dione]	300 to 5000 nM
Cc1ccnc2c1n(C)c(=O)c(=O)n2C1CCN(Cc2ccc(OC(F)(F)F)cc2)CC1 [Example 56, 1,8-dimethyl-4-(1-(4-(trifluoromethoxy)benzyl)piperidin-4-yl)-1,4-dihydropyrido[2,3-b]pyrazine-2,3-dione]	> 5000 nM
CC(C)Oc1ccc2c(n1)n(C1CCN(Cc3ccc(OC(F)(F)F)cc3)CC1)c(=O)c(=O)n2C [Example 58, 6-isopropoxy-1-methyl-4-(1-(4-(trifluoromethoxy)benzyl)piperidin-4-yl)-1,4-dihydropyrido[2,3-b]pyrazine-2,3-dione]	> 5000 nM
Cn1c(=O)c(=O)n(C2CCN(Cc3ccc(OC(F)(F)F)cc3)CC2)c2ncc(F)cc21 [Example 59, 7-fluoro-1-methyl-4-(1-(4-(trifluoromethoxy)benzyl)piperidin-4-yl)-1,4-dihydropyrido[2,3-b]pyrazine-2,3-dione]	300 to 5000 nM
COC(=O)c1cnc2c(c1)n(C)c(=O)c(=O)n2C1CCN(Cc2ccc(OC(F)(F)F)cc2)CC1 [Example 60, methyl 1-methyl-2,3-dioxo-4-(1-(4-(trifluoromethoxy)benzyl)piperidin-4-yl)-1,2,3,4-tetrahydropyrido[2,3-b]pyrazine-7-carboxylate]	< 300 nM
Cc1cnc2c(c1)n(C)c(=O)c(=O)n2C1CCN(Cc2ccc(OC(F)(F)F)cc2)CC1 [Example 61, 1,7-dimethyl-4-(1-(4-(trifluoromethoxy)benzyl)piperidin-4-yl)-1,4-dihydropyrido[2,3-b]pyrazine-2,3-dione]	< 300 nM
Cn1c(=O)c(=O)n(C2CCN(Cc3ccc(OC(F)(F)F)cc3)CC2)c2ncc(C(=O)O)cc21 [Example 62, 1-methyl-2,3-dioxo-4-(1-(4-(trifluoromethoxy)benzyl)piperidin-4-yl)-1,2,3,4-tetrahydropyrido[2,3-b]pyrazine-7-carboxylic acid]	300 to 5000 nM
CN(C)CCNC(=O)c1cnc2c(c1)n(C)c(=O)c(=O)n2C1CCN(Cc2ccc(OC(F)(F)F)cc2)CC1 [Example 63, N-(2-(dimethylamino)ethyl)-1-methyl-2,3-dioxo-4-(1-(4-(trifluoromethoxy)benzyl)piperidin-4-yl)-1,2,3,4-tetrahydropyrido[2,3-b]pyrazine-7-carboxamide]	> 5000 nM
CN(C)C(=O)c1cnc2c(c1)n(C)c(=O)c(=O)n2C1CCN(Cc2ccc(OC(F)(F)F)cc2)CC1 [Example 64, N,N,1-trimethyl-2,3-dioxo-4-(1-(4-(trifluoromethoxy)benzyl)piperidin-4-yl)-1,2,3,4-tetrahydropyrido[2,3-b]pyrazine-7-carboxamide]	> 5000 nM
